Measured values taken from US9309263B2, “Fused multi-cyclic sulfone compounds as inhibitors of beta-secretase and methods of use thereof” (AMGEN INC., priority 2013, dated 2016).
Read-outs that look alike come from different tables or passages of the source.

Tests used:
[1] = target: Beta Secretase enzyme (BACE) (Homo sapiens, UniProt P56817); assay: In vitro enzymatic BACE FRET assay; type: biochemical; conditions: average IC50; read-out: BACE1 FRET assay IC50
Summary of the method: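 Cleavage of a quenched 50 nM FRET peptide substrate, read as fluorescence (excitation 488 nm, […]) after 1 h and Tris quench to neutrality. Buffer: 0.05 M acetate pH 4.2 with 10% DMSO and 100 uM genapol. Inhibitor dilutions were pre-incubated 1 h with 0.2 nM enzyme.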

[2] = target: Cathepsin D (Cat D) (Homo sapiens, UniProt P07339); assay: In vitro enzymatic Cathepsin D (Cat D) FRET assay; type: biochemical
Summary of the method: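 FRET peptide substrate (20 nM) is cleaved by CHO-derived recombinant enzyme (9 nM) for 1 h after a 1 h inhibitor pre-incubation, at pH 3.5 in citrate buffer with 5 mM CHAPS and 10% DMSO. Tris addition ends the reaction; fluorescence measured at 500 nm excitation, 580 nm emission.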

[3] = system: Aβ 40 in conditioned medium of cells stably expressing Amyloid Precursor Protein (APP); assay: In vitro BACE cell-based assay (Aβ 40 sandwich ELISA); conditions: Homo sapiens, HEK293; HEK cell; average IC50
Summary of the method: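 Aβ40 in conditioned medium measured by pAb40/biotin-6E10 sandwich ELISA with time-resolved europium fluorescence, after 24 h exposure of stable APP cells to compounds (10-point series starting 100 μM or 10 μM; 0.1% DMSO). IC50 fitted from percent of control against concentration.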

[4] = text summary referring to data in Table 2

Sequence of Beta Secretase enzyme (BACE) (P56817 46-501): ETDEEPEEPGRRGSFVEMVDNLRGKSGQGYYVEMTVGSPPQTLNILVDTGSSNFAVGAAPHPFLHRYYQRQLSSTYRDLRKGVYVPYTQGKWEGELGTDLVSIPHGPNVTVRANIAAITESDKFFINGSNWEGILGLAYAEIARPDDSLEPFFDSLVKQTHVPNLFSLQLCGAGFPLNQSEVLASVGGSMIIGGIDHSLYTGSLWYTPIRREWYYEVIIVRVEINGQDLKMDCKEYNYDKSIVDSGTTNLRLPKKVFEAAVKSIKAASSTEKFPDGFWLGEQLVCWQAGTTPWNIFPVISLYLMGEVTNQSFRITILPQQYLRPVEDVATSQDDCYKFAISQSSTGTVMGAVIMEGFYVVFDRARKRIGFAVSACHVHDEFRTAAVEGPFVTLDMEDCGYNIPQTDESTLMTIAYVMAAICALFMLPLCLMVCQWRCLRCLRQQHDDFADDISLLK
Sequence of Cathepsin D (Cat D) (P07339 65-412, species assumed): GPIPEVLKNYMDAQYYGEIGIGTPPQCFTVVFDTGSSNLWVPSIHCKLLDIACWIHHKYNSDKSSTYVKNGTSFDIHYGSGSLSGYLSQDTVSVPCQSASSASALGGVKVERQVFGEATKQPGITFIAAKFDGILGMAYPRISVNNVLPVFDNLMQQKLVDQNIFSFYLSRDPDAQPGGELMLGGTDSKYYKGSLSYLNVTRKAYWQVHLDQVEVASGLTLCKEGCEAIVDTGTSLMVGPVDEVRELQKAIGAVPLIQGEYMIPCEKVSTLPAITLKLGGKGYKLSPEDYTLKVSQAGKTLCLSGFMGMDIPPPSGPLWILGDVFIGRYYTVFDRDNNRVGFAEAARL

Row | SMILES | IC50 [1] [µM] | IC50 ([2]; read-out: CatD IC50) [µM] | IC50 [2, 4] [µM] | IC50 [3] [µM]
1 | CC1(C)C(N)=N[C@]2(C)c3cc(NC(=O)c4ccc(Cl)cn4)ccc3CCC[C@H]2S1(=O)=O [Example 43, N-((4aR,11bR)-2-amino-3,3,11b-trimethyl-4,4-dioxido-3,4a,5,6,7,11b-hexahydrobenzo[3,4]cyclohepta[1,2-b][1,4]thiazin-10-yl)-5-chloro-2-pyridinecarboxamide] | 0.012 | 458 | – | 0.019
2 | CC1(C)C(N)=N[C@]2(C)c3cc(NC(=O)c4ncc(Cl)cc4Cl)ccc3CCC[C@H]2S1(=O)=O [Example 44, N-((4aR,11bR)-2-amino-3,3,11b-trimethyl-4,4-dioxido-3,4a,5,6,7,11b-hexahydrobenzo[3,4]cyclohepta[1,2-b][1,4]thiazin-10-yl)-3,5-dichloro-2-pyridinecarboxamide] | 0.005 | 541 | – | 0.016
3 | Cc1cc(C(F)(F)F)cnc1C(=O)Nc1ccc2c(c1)[C@@]1(C)N=C(N)C(C)(C)S(=O)(=O)[C@@H]1CCC2 [Example 45, N-((4aR,11bR)-2-amino-3,3,11b-trimethyl-4,4-dioxido-3,4a,5,6,7,11b-hexahydrobenzo[3,4]cyclohepta[1,2-b][1,4]thiazin-10-yl)-3-methyl-5-(trifluoromethyl)-2-pyridinecarboxamide] | 0.018 | 1460 | > 1200 | 0.006
4 | CC1(C)C(N)=N[C@]2(C)c3cc(Nc4nccc5cc(Cl)cnc45)ccc3CCC[C@H]2S1(=O)=O [Example 46, (4aR,11bR)-N^~10^~-(3-chloro-1,7-naphthyridin-8-yl)-3,3,11b-trimethyl-3,4a,5,6,7,11b-hexahydrobenzo[3,4]cyclohepta[1,2-b][1,4]thiazine-2,10-diamine 4,4-dioxide] | 0.01 | 85.9 | – | 0.102

Next, values leading:

Row | IC50 [1] [µM] | IC50 ([2]; read-out: CatD IC50) [µM] | IC50 [2, 4] [µM] | IC50 [3] [µM] | SMILES
5 | 0.018 | 5550 | > 1200 | 0.005 | Cc1cc(OC(F)F)cnc1C(=O)Nc1ccc2c(c1)[C@@]1(C)N=C(N)C(C)(C)S(=O)(=O)[C@@H]1CCC2 [Example 41, N-((4aR,11bR)-2-amino-3,3,11b-trimethyl-4,4-dioxido-3,4a,5,6,7,11b-hexahydrobenzo[3,4]cyclohepta[1,2-b][1,4]thiazin-10-yl)-5-(difluoromethoxy)-3-methyl-2-pyridinecarboxamide]
6 | 0.067 | 2980 | > 1200 | 0.032 | COc1cnc(C(=O)Nc2ccc3c(c2)[C@@]2(C)N=C(N)C(C)(C)S(=O)(=O)[C@@H]2CCC3)c(C)c1 [Example 42, N-((4aR,11bR)-2-amino-3,3,11b-trimethyl-4,4-dioxido-3,4a,5,6,7,11b-hexahydrobenzo[3,4]cyclohepta[1,2-b][1,4]thiazin-10-yl)-5-methoxy-3-methyl-2-pyridinecarboxamide]
7 | 0.008 | 338 | – | 0.042 | CC1(C)C(N)=N[C@]2(C)c3cc(Nc4nccc5cc(C#N)cnc45)ccc3CCC[C@H]2S1(=O)=O [Example 47, 8-(((4aR,11bR)-2-amino-3,3,11b-trimethyl-4,4-dioxido-3,4a,5,6,7,11b-hexahydrobenzo[3,4]cyclohepta[1,2-b][1,4]thiazin-10-yl)amino)-1,7-naphthyridine-3-carbonitrile]
8 | 0.041 | 393 | – | 0.041 | COc1cnc2c(Nc3ccc4c(c3)[C@@]3(C)N=C(N)C(C)(C)S(=O)(=O)[C@@H]3CCC4)nccc2n1 [Example 48, (4aR,11bR)-N^~10^~-(2-methoxypyrido[3,4-b]pyrazin-5-yl)-3,3,11b-trimethyl-3,4a,5,6,7,11b-hexahydrobenzo[3,4]cyclohepta[1,2-b][1,4]thiazine-2,10-diamine 4,4-dioxide]
